Measurements as given in US20250145619A1, “KHK INHIBITOR, PREPARATION METHOD THEREFOR AND USE THEREOF” (YOUNGENE THERAPEUTICS CO., LTD, priority 2022, published 2025).

Molecular target: KHK—C (Homo sapiens (Human), UniProt P50053)
Experiment: KHK—C ADP-Glo kinase inhibitory activity assay
Assay type: biochemical
Conditions: 1 nM KHK—C, 200 μM D-Fructose, 100 μM ATP, ADP-Glo luminescence
Source text: (KHK—C ADP-Glo Kinase Inhibitory Activity Assay)
Y=Bottom+(Top−Bottom)/(1+10^((LogIC50−X)×HillSlope)) • X: Log value of compound concentration • Y: Inhibition ratio (%)
[formula] • Negative control: DMSO

KHK—C, sequence (P50053 whole entry): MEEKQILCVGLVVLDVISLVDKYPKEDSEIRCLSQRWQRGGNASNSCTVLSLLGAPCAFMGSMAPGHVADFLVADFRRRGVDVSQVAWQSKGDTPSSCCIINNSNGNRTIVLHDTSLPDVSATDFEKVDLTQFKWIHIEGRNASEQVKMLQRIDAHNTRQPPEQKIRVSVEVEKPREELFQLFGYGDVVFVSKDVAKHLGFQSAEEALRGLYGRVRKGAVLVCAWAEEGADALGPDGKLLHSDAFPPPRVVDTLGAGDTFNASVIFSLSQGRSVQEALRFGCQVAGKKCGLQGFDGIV

Row | Structure (SMILES) | IC50
1 | CN[C@@H]1CN(c2nc(N3CC4(CC(C(=O)O)C4)C3)c3c(n2)C(F)(F)CC3)[C@H]1C [Example 29, 2-(7,7-difluoro-2-((2S,3R)-2-methyl-3-(methylamino)azetidine-1-yl)-6,7-dihydro-5H-cyclopentadiene[d]pyrimidin-4-yl)-2-azaspiro[3.3]heptan-6-carboxylic acid] | > 10000 nM
2 | CO[C@@H]1CN(c2nc(N3CC4(CC(C(=O)O)C4)C3)c3c(n2)C(F)(F)CC3)[C@H]1C [Example 30, 2-(7,7-difluoro-2-((2S,3R)-3-methoxy-2-methylazetidine-1-yl)-6,7-dihydro-5H-cyclopentadiene[d]pyrimidin-4-yl)-2-azaspiro[3.3]heptan-6-carboxylic acid] | > 10000 nM
3 | C[C@H]1CCN1c1nc(N2CC3(CC(C(=O)O)C3)C2)c2c(n1)C(F)(F)CC2 [Example 24, (S)-2-(7,7-difluoro-2-(2-methylazetidine-1-yl)-6,7-dihydro-5H-cyclopentadiene[d]pyrimidin-4-yl)-2-azaspiro[3.3]heptan-6-carboxylic acid] | 78.3 nM
4 | C[C@H]1CCN1c1nc(N2CC3(CC(CC(=O)O)C3)C2)c2c(n1)C(F)(F)CC2 [Example 34, (S)-2-(2-(7,7-difluoro-2-(2-methylazetidine-1-yl)-6,7-dihydro-5H-cyclopentadiene[d]pyrimidin-4-yl)-2-azaspiro[3.3]heptan-6-yl)acetic acid] | 40 nM
5 | C[C@H]1CCN1c1nc(N2CCC(CC(=O)O)C2)c2c(n1)C(F)(F)CC2 (stereo partly drawn) [Example 32, 2-(1-(7,7-difluoro-2-((S)-2-methylazetidine-1-yl)-6,7-dihydro-5H-cyclopentadiene[d]pyrimidin-4-yl)pyrrolidin-3-yl)acetic acid] | 10.4 nM

Second part, the molecule after the results:

Row | IC50 | Structure (SMILES)
6 | 27.9 nM | C[C@H]1CCN1c1nc(N2CC3(CC(C(=O)O)C3)C2)cc(C(F)(F)F)c1C#N [Example 1, (S)-2-(5-cyano-6-(2-methylazetidine-1-yl)-4-(trifluoromethyl)pyridin-2-yl)-2-azaspiro[3.3]heptan-6-carboxylic acid]
7 | > 10000 nM | CC(=O)N[C@@H]1CN(c2nc(N3CC4(CC(C(=O)O)C4)C3)c3c(n2)C(F)(F)CC3)[C@H]1C [Example 28, 2-(2-((2S,3R)-3-acetamido-2-methylazetidine-1-yl)-7,7-difluoro-6,7-dihydro-5H-cyclopentadiene[d]pyrimidin-4-yl)-2-azaspiro[3.3]heptan-6-carboxylic acid]
8 | 198 nM | C[C@H]1CCN1c1nc(N2CC3(C2)CS(=O)(=O)C3)cc(C(F)(F)F)c1C#N [Example 4, (S)-6-(2,2-dioxa-2-thioxa-6-azaspiro[3.3]heptan-6-yl)-2-(2-methylazetidine-1-yl)-4-(trifluoromethyl)nicotinonitrile]
9 | 42.9 nM | C[C@H]1CCN1c1nc(N2CCC3(CC(C(=O)O)C3)C2)c2c(n1)C(F)(F)CC2 (stereo partly drawn) [Example 26, (S)-6-(7,7-difluoro-2-(2-methylazetidine-1-yl)-6,7-dihydro-5H-cyclopentadiene[d]pyrimidin-4-yl)-6-azaspiro[3.4]octan-2-carboxylic acid]
10 | 6300 nM | C[C@H]1CCN1c1nc(N2CCC3(CC(C(=O)O)C3)C2)cc(C(F)(F)F)c1C(N)=O (stereo partly drawn) [Example 16, (S)-6-(5-aminoformyl-6-(2-methylazetidine-1-yl)-4-(trifluoromethyl)pyridin-2-yl)-6-azaspiro[3.4]octan-2-carboxylic acid]
